# Assay results: patent publication US20090263492A1, “Diagnostic Methods and Genetic Markers for Alzheimer Disease” (priority 2006, published 2009)
# System: Mgat3 transcription
# Assay: qPCR of Mgat3 transcription in PBMC's from AD patients cultured with Aβ and test agent
# Format: cell-based, human
# Set-up: key to Relative Activity: relative ratio of Mgat3 transcription in AD/Mgat3 transcription in control cells: Dash (−) indicates minimal effect; (+) indicates a ratio of 1.0-1.5; (++) indicates a ratio of 1.5-2.0; (+++ to ++++) indicates a ratio of 2.0 and above; (+++ to ++++) indicates a ratio of 2.0 and above
# Details: Homo sapiens; curcumins 0.1 uM, PBMC's from AD patients cultured overnight with Aβ, 2 hours incubation, qPCR; read-out: Relative Activity: relative ratio of Mgat3 transcription in AD/Mgat3 transcription in control cells
# Experimental: RNA Isolation and qPCR. RNA was isolated as above from PBMC's (10 million) of each subject, which were cultured overnight with or without Aβ (2 μg/ml); and cDNA was synthesized using the iSCRIPT cDNA Synthesis Kit. The expression levels of the genes of interest were tested by qPCR on a real-time PCR detector and normalized to the levels of the housekeeping gene 36B4 with the following primers: […]
# SYBR Green reactions were carried out with the IQ SYBR Green mix. Reactions were run on a Continuous Fluorescence detector and analyzed. The relative quantities of the gene tested per sample were calculated against 36B4 using the ΔΔC(T) formula as previously described. The results are expressed as log [MGAT (or TLR) RNA (with Aβ)/MGAT (or TLR) RNA (without Aβ)] for each specimen. For evaluation of curcumins or curcumin analogs the above assay was used. Curcumins (0.1 uM) were added to PBMC's from AD patients cultured overnight with ±Aβ as above. After 2 hours of incubation with the curcumin or analog, RNA was isolated and cDNA was synthesized as above. The expression levels of Mgat3 or TLR transcription was quantified and normalized to the levels of housekeeping genes and compared to cells treated with curcumin or analogs with or without Aβ vs. untreated cells. The amount of Mgat3 (or TLR) RNA with Aβ and test agent/Mgat3 (or TLR) RNA withal alone)] for each cell preparation in the presence of test agent was determined. The ratio was used to determine the potency of the agent tested. Potent compounds had elevated ratios (>1.5) and were used to rank the relative activity of each test agent (Table 2).
# Curcumins. […] Crude natural product derived materials (i.e., curcuminoids) enhance phagocytosis of Aβ by macrophages from AD patients in approximately 50% of the cases examined. […] The material was purified to near homogeneity and identified by LCMS as bisdesmethoxycurcumin on the basis of its molecular ion and fragmentation pattern. To verify the biological activity of this minor constituent, bisdesmethoxycurcumin was chemically synthesized and tested in the phagocytosis and transcription assays described above (see Example 4). Compared with curcumin, both the bisdesmethoxycurcumin material isolated by chromatography and the chemically synthesized bisdesmethoxycurcumin material optimally stimulated phagocytosis at 0.1 μM. To determine whether functional improvement would be accompanied by biochemical changes, we tested transcriptional up-regulation of MGA T3 and TLR's in PBMC's from AD patients and controls in the presence of Aβ with bisdesmethoxycurcumin (0.1 μM) in comparison to Aβ alone. […] Thus, curcumins (0.1 uM) were added to PBMC's from AD patients cultured overnight with Aβ as above. After 2 hours of incubation, RNA was isolated and cDNA was synthesized. The expression levels of Mgat3 or TLR transcription was quantified and normalized to the levels of housekeeping genes and compared to cells treated with curcumin or analogs without Aβ. The amount of Mgat3 (or TLR) RNA with test agent and Aβ)/Mgat3 (or TLR) RNA (with Aβ alone)] for each cell preparation in the presence of test agent was determined. The ratio was used to determine the potency of the agent tested. Potent compounds had elevated ratios (>1.5) and were used to rank the relative activity (Table 2).
# Mgat3 and TLR transcription in cells from AD and control patients. We tested by qPCR Mgat3 and/0or TLR transcription in cells from AD patients and compared the results to those obtained from age-matched controls (Table 2). As discussed above, activation or up-regulation of macrophage Mgat3 or TLR's results in many functional outcomes, including the enhancement of […] and removal of Aβ, increased apoptosis, secretion of inflammatory cytokines, and other anti-AD antimicrobial activities. […] Thus, the ratio of Mgat3 or TLR transcription upon Aβ stimulation of AD versus control PBMCs provides an indicator and sensitive method to test the in vitro efficacy of drug candidates. […]
row,Molecule,fold induction at 0.1 µM
1,"O=C(C=Cc1cccc(O)c1)C=C(O)C=Cc1cccc(O)c1 [Compound 5e, 5-Hydroxy-1,7-bis-(3-hydroxy-phenyl)-hepta-1,4,6-trien-3-one]",1 to 1.5
2,"CN(C)c1ccc(C=CC(=O)C=C(O)C=Cc2ccc(N(C)C)cc2)cc1 [Compound 5f, 1,7-Bis-(4-dimethylamino-phenyl)-5-hydroxy-hepta-1,4,6-trien-3-one]",≥ 2
3,"COc1ccc(C=CC(=O)C=C(O)C=Cc2ccc(OC)c(O)c2)cc1O [Compound 5g, 5-Hydroxy-1,7-bis-(3-hydroxy-4-methoxy-phenyl)-hepta-1,4,6-trien-3-one]",1 to 1.5
4,"COc1cc(C=CC(=O)C=C(O)C=Cc2ccc(O)c(OC)c2)ccc1O [Compound 5h, 5-Hydroxy-1,7-bis-(4-hydroxy-3-methoxy-phenyl)-hepta-1,4,6-trien-3-one]",1 to 1.5
5,"COc1cc(O)ccc1C=CC(=O)C=C(O)C=Cc1ccc(O)cc1OC [Compound 5i, 5-Hydroxy-1,7-bis-(4-hydroxy-2-methoxy-phenyl)-hepta-1,4,6-trien-3-one]",1.5 to 2
6,"COc1ccccc1C=CC(=O)C=C(O)C=Cc1ccccc1OC [Compound 5l, 5-Hydroxy-1,7-bis-(2-methoxy-phenyl)-hepta-1,4,6-trien-3-one]",≥ 2
7,"O=C(/C=C(O)/C=C/c1ccccc1)/C=C/c1ccccc1 [Compound 6, (1E,4Z,6E)-5-hydroxy-1,7-diphenylhepta-1,4,6-trien-3-one]",1 to 1.5
8,"CC(C)(C)c1ccc(/C=C/C(=O)/C=C(O)/C=C/c2ccc(C(C)(C)C)cc2)cc1 [Compound 10, (1E,4Z,6E)-1,7-bis(4-tert-butylphenyl)-5-hydroxyhepta-1,4,6-trien-3-one]",1 to 1.5

# Same assay, conditions: curcumins 0.1 uM, PBMC's from AD patients cultured overnight with Aβ, 2 hours incubation, qPCR
row,Molecule,Relative Activity: relative ratio of Mgat3 transcription in AD/Mgat3 transcription in control cells
1,"COc1ccc(C=CC(=O)C=C(O)C=Cc2ccc(OC)cc2)cc1 [Compound 5b, 5-Hydroxy-1,7-bis-(4-methoxy-phenyl)-hepta-1,4,6-trien-3-one]",−
2,"CC(=O)Oc1ccc(C=CC(=O)C=C(O)C=Cc2ccc(OC(C)=O)cc2)cc1 [Compound 5c, Aceticacid 4-[7-(4-acetoxy-phenyl)-5-hydroxy-3-oxo-hepta-1,4,6-trienyl]-phenyl ester]",−
3,"CC(C)(C)C(=O)Oc1ccc(C=CC(=O)CC(=O)C=Cc2ccc(OC(=O)C(C)(C)C)cc2)cc1 [Compound 5d, 2,2-Dimethyl-propionic acid 4-{7-[4-(2,2-dimethyl-propionyloxy)-phenyl]-3,5-dioxo-hepta-1,6-dienyl}-phenyl ester]",−
4,"COc1ccc(C=CC(=O)C=C(O)C=Cc2ccc(OC)cc2O)c(O)c1 [Compound 5j, 5-Hydroxy-1,7-bis-(2-hydroxy-4-methoxy-phenyl)-hepta-1,4,6-trien-3-one]",−
5,"O=C(C=Cc1ccc(O)c(Cl)c1)C=C(O)C=Cc1ccc(O)c(Cl)c1 [Compound 5k, 1,7-Bis-(3-chloro-4-hydroxy-phenyl)-5-Hydroxy-hepta-1,4,6-trien-3-one]",−
6,Cc1ccc(/C=C/C(=O)/C=C(O)/C=C/c2ccc(C)cc2)cc1 [Compound 7],++ ((++) indicates a ratio of 1.5-2.0)
7,O=C(/C=C(O)/C=C/c1cccc(F)c1)/C=C/c1cccc(F)c1 [Compound 8],+ ((+) indicates a ratio of 1.0-1.5)
8,CSc1ccc(/C=C/C(=O)/C=C(O)/C=C/c2ccc(SC)cc2)cc1 [Compound 9],++++ ((+++ to ++++) indicates a ratio of 2.0 and above)

# System: macrophages of AD patients
# Assay: Phagocytosis of FITC-amyloid-beta (1-42) by macrophages of AD patients
# Format: cell-based, human
# Details: in vitro treatment during Aβ phagocytosis, fluorescence/confocal microscopy
# Text: (§1) Peripheral blood mononuclear cells (PBMC's) and macrophages. AD patients were recruited at the time of enrollment in a double-blind study of curcumin Complex 3 in progress at UCLA. The diagnostic criteria for AD satisfied the National Institute of Neurological and Communicative Disorders and the AD and Related Disorders Association criteria for probable Alzheimer's disease. Normal age-matched control subjects were recruited. PBMC's were isolated by the Ficoll Hypaque gradient technique from venous blood. To prepare macrophage slide cultures, 50,000 PBMC's were cultured in each well of an 8-chamber polystyrene vessel glass slide in Iscove's medium with 10% autologous serum until differentiated into adherent macrophages (7-14 days).
# Phagocytosis assay and confocal microscopy. Macrophages were exposed to FITC-amyloid-beta (1-42) (2 μg/ml) overnight, fixed with 4% paraformaldehyde, permeabilized with 0.1% Triton X-100, blocked with 1% BSA in PBS and stained with Rab 5 or EEA1 antibodies by indirect immunofluorescence; lysosomes were stained intravitally by the Lyso-Tracker probe; macrophages were stained using anti-CD68; neurons were stained using anti-NeuN. The preparations were examined using fluorescence and confocal microscopy.
# Ability of monocytes to clear Aβ in the brain. Co-culture of freshly isolated monocytes with sections of AD frontal lobe to test the ability of monocytes to clear Aβ in the brain was done. One third of control monocytes became saturated with Aβ in 2 days and 100% in 4 days. […] Apoptosis of macrophages treated with Aβ was done with the SR-VAD-FMK polycaspase assay. Differentiated macrophages were treated with curcuminoids or analogs in the medium overnight and were then exposed to FITC-Aβ (1-42) to 2.5 μg/ml, incubated for 24 or 48 h and examined by fluorescence or confocal microscopy.
# Curcuminoids reverse defective phagocytosis of amyloid-beta by macrophages of individual AD patients. […] Macrophages were visualized using anti-CD68 or fluorescent phalloidin with a fluorescence microscope.
row,Molecule,effect on Aβ phagocytosis/uptake by AD macrophages
1,IGF-1: the hormone insulin-like growth factor (IGF-I),improves Aβ phagocytosis

# System: control macrophages
# Assay: Phagocytosis / uptake of FITC-Aβ by control macrophages
# Format: cell-based, human
# Details: Example 5; control or AD macrophages not specified
# Text: as §1
# Phagocytosis assay and confocal microscopy. […] The preparations were examined using fluorescence and confocal microscopy. […]
# Curcuminoids reverse defective phagocytosis of amyloid-beta by macrophages of individual AD patients. […] Macrophages were visualized using anti-CD68 or fluorescent phalloidin with a fluorescence microscope. […]
row,Molecule,block of uptake of Aβ
1,Fucoidan,did not block uptake of Aβ

# System: not given
# Assay: not given
# Details: not given
row,Molecule,melting point [°C]
1,"COc1ccc(C=CC(=O)C=C(O)C=Cc2ccc(OC)c(O)c2)cc1O [Compound 5g, 5-Hydroxy-1,7-bis-(3-hydroxy-4-methoxy-phenyl)-hepta-1,4,6-trien-3-one]",182.8
